ChEMBL document CHEMBL4834430, “Design and Structure-Activity Relationships of Isothiocyanates as Potent and Selective N-Acylethanolamine-Hydrolyzing Acid Amidase Inhibitors” (J Med Chem, 2021)
Calls of active or inactive are those of the source. The rule behind the calls is not given here.

Tests used:
[1] = biological target: T1, N-acylethanolamine-hydrolyzing acid amidase (Homo sapiens, UniProt Q02083); experiment: Inhibition of human NAAA using N-(4-methyl coumarin)-palmitamide as fluorogenic substrate preincubated for 90 mins followed by substrate addition by fluorescence assay
T1 sequence (Q02083 whole entry): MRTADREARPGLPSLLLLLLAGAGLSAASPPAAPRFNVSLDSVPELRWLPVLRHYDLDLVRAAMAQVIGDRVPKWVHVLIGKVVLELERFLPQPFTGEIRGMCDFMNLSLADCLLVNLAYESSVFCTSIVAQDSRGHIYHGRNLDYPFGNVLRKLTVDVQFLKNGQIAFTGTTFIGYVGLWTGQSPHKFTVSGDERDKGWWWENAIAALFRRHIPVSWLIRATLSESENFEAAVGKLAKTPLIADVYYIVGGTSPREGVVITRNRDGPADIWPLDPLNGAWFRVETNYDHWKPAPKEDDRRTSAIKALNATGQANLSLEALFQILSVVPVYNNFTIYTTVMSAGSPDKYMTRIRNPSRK

[2] = Half life in human liver microsomes at 1 uM in presence of NADPH by LC-MS/MS analysis; assay type: ADME, Microsome
[3] = Half life in mouse liver microsomes at 1 uM in presence of NADPH by LC-MS/MS analysis; assay type: ADME, Microsome
[4] = Half life in rat liver microsomes at 1 uM in presence of NADPH by LC-MS/MS analysis; assay type: ADME, Microsome
[5] = Drug concentration in plasma of CD-1 mouse at 2 mg/kg, iv administered as single cassette dose measured after 15 mins; assay type: ADME, organism-based
[6] = Drug concentration in brain of CD-1 mouse at 2 mg/kg, iv administered as single cassette dose measured after 15 mins; assay type: ADME, organism-based; settings: read-out: Ct
[7] = Drug concentration in plasma of CD-1 mouse at 8 mg/kg, po administered as single cassette dose measured after 60 mins; assay type: ADME, organism-based
[8] = biological target: T2, N-acylethanolamine-hydrolyzing acid amidase (Homo sapiens) (UniProt Q02083); experiment: Covalent inhibition of human NAAA assessed as ratio of Kinact/Ki
T2 sequence (whole entry): T1 sequence (Q02083 whole entry)

[9] = Drug concentration in plasma of CD-1 mouse at 8 mg/kg, po administered as single cassette dose measured after 30 mins; assay type: ADME, organism-based
[10] = biological target: T3, Cathepsin K (Homo sapiens) (UniProt P43235); experiment: Inhibition of recombinant human Cathepsin K at 100 nM using Z-Phe-Arg-AMC as fluorogenic substrate preincubated for 120 mins followed by substrate addition by fluorescence assay relative to control
T3 sequence (whole entry): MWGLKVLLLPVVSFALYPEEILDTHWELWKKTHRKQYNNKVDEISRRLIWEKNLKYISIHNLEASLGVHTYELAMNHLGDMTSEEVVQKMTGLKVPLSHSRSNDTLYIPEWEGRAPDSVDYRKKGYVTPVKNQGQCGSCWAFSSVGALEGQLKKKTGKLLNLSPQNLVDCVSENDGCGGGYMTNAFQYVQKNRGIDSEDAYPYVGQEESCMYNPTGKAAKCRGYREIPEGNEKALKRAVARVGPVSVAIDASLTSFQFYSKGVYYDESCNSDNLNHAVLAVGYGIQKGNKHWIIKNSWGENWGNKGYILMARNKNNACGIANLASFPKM

Cathepsin K = biological target: T4, Cathepsin K (Homo sapiens, UniProt P43235); experiment: Inhibition of recombinant human Cathepsin K using Z-Phe-Arg-AMC as fluorogenic substrate preincubated for 120 mins followed by substrate addition by fluorescence assay
T4 sequence (P43235 whole entry): T3 sequence (whole entry)

[11] = biological target: T3, Cathepsin K (Homo sapiens); experiment: Inhibition of recombinant human Cathepsin K at 1 uM using Z-Phe-Arg-AMC as fluorogenic substrate preincubated for 120 mins followed by substrate addition by fluorescence assay

`COc1ccc(-c2ccc(CO[C@H]3CC[C@@H](N=C=S)CC3)cc2)cc1F` showed an IC50 [1] of 386 nM.
In the case of `COc1ccc(-c2ccc(CO[C@H]3C[C@@H](N=C=S)C3)nc2)nc1`, the IC50 [1] is reported as 30.4 nM.
With `FC1(F)Oc2ccc(-c3ccc(CO[C@H]4C[C@@H](N=C=S)C4)nc3)cc2O1` the IC50 [1] was 171 nM.
`COc1ccc(Oc2ccc(C(=O)N[C@H]3C[C@@H](N=C=S)C3)cc2)cc1` showed an IC50 [1] of 1420 nM.
`COc1ccc(-c2ccc(OC(=O)N[C@H]3C[C@@H](N=C=S)C3)cc2)cc1` gave an IC50 [1] of 7 nM, a half-life at 1 µM [2] of 6.4 min and a half-life at 1 µM [3] of 6.2 min. The half-life at 1 µM [4] was 5 min.
`Fc1cc(-c2ccc3c(c2)OCO3)ccc1CO[C@H]1C[C@@H](N=C=S)C1` showed a concentration at 0.25 h [5] of 244 ng/mL, an IC50 [1] of 8.8 nM and a concentration at 0.25 h [6] of 14 ng/g. It also gave a half-life at 1 µM [2] of 3.3 min, a half-life at 1 µM [3] of 2.4 min and a half-life at 1 µM [4] of 6.5 min. For the same compound, the concentration at 1 h [7] was 13 ng/mL, the Ratio [8] was 3.44 10^5/M/s and the concentration at 0.5 h [9] was 31 ng/mL.
`COc1ccc(CCCCCC(=O)N[C@H]2C[C@@H](N=C=S)C2)cc1` showed an IC50 [1] of 22.5 nM.
`Cn1cc(-c2ccc(CO[C@H]3C[C@@H](N=C=S)C3)c(F)c2)cn1` showed an IC50 [1] of 517 nM.
`COc1ccc(CCCC(=O)N[C@H]2C[C@@H](N=C=S)C2)cc1` gave an IC50 [1] of 62 nM.
`COc1cc(-c2ccc(CO[C@H]3C[C@@H](N=C=S)C3)c(F)c2)ccc1F` gave an IC50 [1] of 155 nM.
With `COc1ccc(C23CC(C(=O)N[C@H]4C[C@@H](N=C=S)C4)(C2)C3)cc1` the IC50 [1] was 128 nM.
Compound `COc1ccc(-c2ccc3c(c2)CCN([C@H]2C[C@@H](N=C=S)C2)C3)cc1F` has an IC50 [1] of 89 nM.
With `Fc1cc(-c2ccc3c(c2)OCCO3)ccc1CO[C@H]1C[C@@H](N=C=S)C1` the concentration at 0.25 h [5] was 168 ng/mL, the IC50 [1] was 11.8 nM and the concentration at 0.25 h [6] was 12 ng/g. For the same compound, the concentration at 1 h [7] was 7 ng/mL, the Ratio [8] was 2.43 10^5/M/s and the concentration at 0.5 h [9] was 12 ng/mL.
With `COc1ccc(-c2cc(CO[C@H]3C[C@@H](N=C=S)C3)on2)cc1` the IC50 [1] was 43.6 nM.
Work on `COc1ccc(-c2cc(C(=O)N[C@H]3C[C@@H](N=C=S)C3)on2)cc1` yielded an IC50 [1] of 91.5 nM.
In the case of `Fc1cc(-c2cccc(OCc3ccccc3)c2)ccc1CO[C@H]1C[C@@H](N=C=S)C1`, the IC50 [1] is reported as 99.8 nM.
`S=C=N[C@H]1C[C@@H](OCc2ccc(-c3ccccc3)cc2)C1` showed an IC50 [1] of 93 nM, a half-life at 1 µM [2] of 16.1 min and a half-life at 1 µM [3] of 14.4 min. The half-life at 1 µM [4] was 19.6 min and the Ratio [8] was 7.23 10^6/M/s.
`COc1ccc(N2CCC(C(=O)N[C@H]3C[C@@H](N=C=S)C3)CC2)cc1` showed an IC50 [1] of 137 nM.
For `CN(Cc1ccc(-c2ccccc2)cc1)[C@H]1C[C@@H](N=C=S)C1`, the IC50 [1] was 1920 nM, the half-life at 1 µM [2] was 14.7 min and the half-life at 1 µM [3] was 5.1 min. The half-life at 1 µM [4] was 4.4 min.
In the case of `COc1ccc(-c2ccc(CO[C@H]3C[C@@H](N=C=S)C3)c(F)c2)cc1F`, the IC50 [1] is reported as 20.6 nM, the inhibition [10] is reported as 56.5% and the Ratio [8] is reported as 2.85 10^6/M/s.
With `Cc1ccc(-c2ccc(CO[C@H]3C[C@@H](N=C=S)C3)cc2)cc1` the IC50 [1] was 26 nM and the Ratio [8] was 2.04 10^6/M/s.
In the case of `Fc1cc(-c2ccc(OC(F)(F)F)c(F)c2)ccc1CO[C@H]1C[C@@H](N=C=S)C1`, the concentration at 0.25 h [5] is reported as 178 ng/mL, the IC50 [1] is reported as 97.1 nM and the concentration at 0.25 h [6] is reported as 8 ng/g. The half-life at 1 µM [2] was 10.9 min, the half-life at 1 µM [3] was 2.9 min and the half-life at 1 µM [4] was 9.1 min. The concentration at 1 h [7] was 7 ng/mL, the IC50 (Cathepsin K) was 58.6 nM and the concentration at 0.5 h [9] was 12 ng/mL.
`COc1ccc(-c2ccc(CO[C@H]3CC[C@@H](N=C=S)C3)nc2)cc1F` (single isomer, unassigned) showed an IC50 [1] of 1450 nM.
For `COc1ccc(-c2ccc(C(=O)N[C@H]3C[C@@H](N=C=S)C3)nc2)cc1F`, the concentration at 0.25 h [5] was 264 ng/mL, the IC50 [1] was 26.6 nM and the concentration at 0.25 h [6] was 690 ng/g. It also gave a half-life at 1 µM [2] of 13 min, a half-life at 1 µM [3] of 14 min and a half-life at 1 µM [4] of 8.6 min. For the same compound, the concentration at 1 h [7] was 8 ng/mL, the inhibition [11] was “inactive” and the concentration at 0.5 h [9] was 11 ng/mL.
In the case of `COc1ccc(-c2ccc(COC3C[C@@H](N=C=S)C3(C)C)nc2)cc1F` (single isomer, unassigned), the IC50 [1] is reported as 246 nM.
With `S=C=N[C@H]1C[C@@H](OCc2ccc(-c3ccc4occc4c3)cn2)C1` the IC50 [1] was 8.3 nM and the inhibition [10] was 55.8%.
In the case of `COc1ccc(-c2ccc(S(=O)(=O)N[C@H]3C[C@@H](N=C=S)C3)cc2)cc1`, the concentration at 0.25 h [5] is reported as 164 ng/mL, the IC50 [1] is reported as 2.3 nM and the concentration at 0.25 h [6] is reported as 1090 ng/g. The concentration at 1 h [7] was 20 ng/mL, the inhibition [11] was “inactive” and the concentration at 0.5 h [9] was 20 ng/mL.
